Columns and labels:
[1] = biological target: ALK tyrosine kinase receptor (Homo sapiens) (UniProt Q9UM73); test: Inhibition of T7 bacteriophage fused human ALK at 10 uM by KINOMEscan analysis relative to control
[2] = biological target: Mitogen-activated protein kinase kinase kinase 6 (Homo sapiens) (UniProt O95382); test: Inhibition of T7 bacteriophage fused human ASK2 at 10 uM by KINOMEscan analysis relative to control
[3] = biological target: Bone morphogenetic protein receptor type-2 (Homo sapiens) (UniProt Q13873); test: Inhibition of T7 bacteriophage fused human BMPR2 at 10 uM by KINOMEscan analysis relative to control
[4] = biological target: Tyrosine-protein kinase BTK (Homo sapiens) (UniProt Q06187); test: Inhibition of T7 bacteriophage fused human BTK at 10 uM by KINOMEscan analysis relative to control
[5] = biological target: Calcium/calmodulin-dependent protein kinase type II subunit beta (Homo sapiens) (UniProt Q13554); test: Inhibition of T7 bacteriophage fused human CAMK2B at 10 uM by KINOMEscan analysis relative to control
[6] = biological target: Calcium/calmodulin-dependent protein kinase kinase 1 (Homo sapiens) (UniProt Q8N5S9); test: Inhibition of T7 bacteriophage fused human CAMKK1 at 10 uM by KINOMEscan analysis relative to control
[7] = tested on: Epidermal growth factor receptor (Homo sapiens), P00533 [G719C]; test: Inhibition of T7 bacteriophage fused human EGFR G719C mutant at 10 uM by KINOMEscan analysis relative to control
[8] = tested on: Epidermal growth factor receptor (Homo sapiens), P00533 [G719S]; test: Inhibition of T7 bacteriophage fused human EGFR G719S mutant at 10 uM by KINOMEscan analysis relative to control
Sequence of Epidermal growth factor receptor (Homo sapiens), P00533 [G719S] (P00533 whole entry G719S, the tested form may be a part): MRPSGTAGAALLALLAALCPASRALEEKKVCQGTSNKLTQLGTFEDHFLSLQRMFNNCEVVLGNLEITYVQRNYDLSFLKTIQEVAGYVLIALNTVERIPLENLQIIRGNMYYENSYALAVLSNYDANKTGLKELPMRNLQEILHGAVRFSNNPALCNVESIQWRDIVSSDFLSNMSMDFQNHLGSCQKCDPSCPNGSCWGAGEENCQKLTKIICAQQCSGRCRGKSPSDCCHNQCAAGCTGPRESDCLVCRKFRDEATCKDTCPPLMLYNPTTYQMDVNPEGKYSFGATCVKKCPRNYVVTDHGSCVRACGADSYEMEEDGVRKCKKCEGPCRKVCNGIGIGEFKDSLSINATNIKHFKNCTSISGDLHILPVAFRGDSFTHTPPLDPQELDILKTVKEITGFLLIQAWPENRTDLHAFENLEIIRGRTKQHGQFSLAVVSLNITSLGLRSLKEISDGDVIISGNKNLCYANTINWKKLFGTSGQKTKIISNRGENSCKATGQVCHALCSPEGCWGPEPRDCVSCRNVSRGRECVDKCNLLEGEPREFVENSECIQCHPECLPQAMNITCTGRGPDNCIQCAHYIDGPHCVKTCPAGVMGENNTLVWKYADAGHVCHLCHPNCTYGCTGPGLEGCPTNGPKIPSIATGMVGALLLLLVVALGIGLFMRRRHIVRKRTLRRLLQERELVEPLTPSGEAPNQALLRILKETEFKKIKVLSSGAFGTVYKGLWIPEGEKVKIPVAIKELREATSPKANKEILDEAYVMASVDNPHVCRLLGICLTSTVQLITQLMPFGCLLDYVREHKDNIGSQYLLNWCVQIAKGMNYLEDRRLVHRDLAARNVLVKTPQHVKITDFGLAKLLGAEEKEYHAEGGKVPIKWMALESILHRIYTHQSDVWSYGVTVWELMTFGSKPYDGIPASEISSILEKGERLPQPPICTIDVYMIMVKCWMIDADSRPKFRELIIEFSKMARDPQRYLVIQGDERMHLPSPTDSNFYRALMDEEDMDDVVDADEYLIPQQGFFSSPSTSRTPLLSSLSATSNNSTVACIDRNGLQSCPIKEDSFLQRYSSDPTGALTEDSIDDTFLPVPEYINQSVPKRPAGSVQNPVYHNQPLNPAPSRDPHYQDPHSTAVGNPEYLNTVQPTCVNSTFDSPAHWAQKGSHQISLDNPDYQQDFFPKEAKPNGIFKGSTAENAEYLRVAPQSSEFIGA

[9] = biological target: Ephrin type-A receptor 4 (Homo sapiens) (UniProt P54764); test: Inhibition of T7 bacteriophage fused human EPHA4 at 10 uM by KINOMEscan analysis relative to control
[10] = biological target: Ephrin type-B receptor 3 (Homo sapiens) (UniProt P54753); test: Inhibition of T7 bacteriophage fused human EPHB3 at 10 uM by KINOMEscan analysis relative to control
[11] = tested on: Receptor-type tyrosine-protein kinase FLT3 (Homo sapiens), P36888 [K663Q]; test: Inhibition of T7 bacteriophage fused human FLT3 K663Q mutant at 10 uM by KINOMEscan analysis relative to control
[12] = biological target: Homeodomain-interacting protein kinase 1 (Homo sapiens) (UniProt Q86Z02); test: Inhibition of T7 bacteriophage fused human HIPK1 at 10 uM by KINOMEscan analysis relative to control
[13] = biological target: Mitogen-activated protein kinase kinase kinase kinase 2 (Homo sapiens) (UniProt Q12851); test: Inhibition of T7 bacteriophage fused human MAP4K2 at 10 uM by KINOMEscan analysis relative to control
Sequence of Mitogen-activated protein kinase kinase kinase kinase 2 (Homo sapiens) (Q12851 whole entry, the tested form may be a part): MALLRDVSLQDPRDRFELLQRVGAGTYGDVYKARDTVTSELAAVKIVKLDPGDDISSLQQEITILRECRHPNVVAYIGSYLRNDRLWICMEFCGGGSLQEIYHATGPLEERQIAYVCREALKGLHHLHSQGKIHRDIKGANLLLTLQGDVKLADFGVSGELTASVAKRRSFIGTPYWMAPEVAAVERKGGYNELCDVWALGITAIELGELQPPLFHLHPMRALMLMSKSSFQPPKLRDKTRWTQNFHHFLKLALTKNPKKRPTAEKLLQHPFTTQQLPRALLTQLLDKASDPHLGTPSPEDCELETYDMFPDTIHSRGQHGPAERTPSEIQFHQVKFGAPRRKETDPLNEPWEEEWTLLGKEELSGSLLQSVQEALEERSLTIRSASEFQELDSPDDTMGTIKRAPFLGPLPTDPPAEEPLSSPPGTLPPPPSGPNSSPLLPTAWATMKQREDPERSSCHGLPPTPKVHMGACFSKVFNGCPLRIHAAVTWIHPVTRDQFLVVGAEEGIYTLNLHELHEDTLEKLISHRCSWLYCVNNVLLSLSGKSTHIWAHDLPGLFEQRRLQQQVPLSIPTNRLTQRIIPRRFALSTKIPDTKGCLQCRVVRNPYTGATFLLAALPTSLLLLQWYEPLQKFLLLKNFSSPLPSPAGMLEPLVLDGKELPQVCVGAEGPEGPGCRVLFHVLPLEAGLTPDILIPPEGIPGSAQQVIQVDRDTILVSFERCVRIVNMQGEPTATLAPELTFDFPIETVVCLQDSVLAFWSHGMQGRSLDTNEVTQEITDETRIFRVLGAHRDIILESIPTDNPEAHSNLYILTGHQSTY

[14] = biological target: Tyrosine-protein kinase Mer (Homo sapiens) (UniProt Q12866); test: Inhibition of T7 bacteriophage fused human MERTK at 10 uM by KINOMEscan analysis relative to control
[15] = biological target: Platelet-derived growth factor receptor alpha (Homo sapiens) (UniProt P16234); test: Inhibition of T7 bacteriophage fused human PDGFRA at 10 uM by KINOMEscan analysis relative to control
[16] = biological target: Serine/threonine-protein kinase PLK2 (Homo sapiens) (UniProt Q9NYY3); test: Inhibition of T7 bacteriophage fused human PLK2 at 10 uM by KINOMEscan analysis relative to control
[17] = biological target: Protein kinase C iota type (Homo sapiens) (UniProt P41743); test: Inhibition of T7 bacteriophage fused human PRKCI at 10 uM by KINOMEscan analysis relative to control
[18] = biological target: Serine/threonine-protein kinase PRP4 homolog (Homo sapiens) (UniProt Q13523); test: Inhibition of T7 bacteriophage fused human PRP4 at 10 uM by KINOMEscan analysis relative to control
Sequence of Serine/threonine-protein kinase PRP4 homolog (Homo sapiens) (Q13523 whole entry, the tested form may be a part): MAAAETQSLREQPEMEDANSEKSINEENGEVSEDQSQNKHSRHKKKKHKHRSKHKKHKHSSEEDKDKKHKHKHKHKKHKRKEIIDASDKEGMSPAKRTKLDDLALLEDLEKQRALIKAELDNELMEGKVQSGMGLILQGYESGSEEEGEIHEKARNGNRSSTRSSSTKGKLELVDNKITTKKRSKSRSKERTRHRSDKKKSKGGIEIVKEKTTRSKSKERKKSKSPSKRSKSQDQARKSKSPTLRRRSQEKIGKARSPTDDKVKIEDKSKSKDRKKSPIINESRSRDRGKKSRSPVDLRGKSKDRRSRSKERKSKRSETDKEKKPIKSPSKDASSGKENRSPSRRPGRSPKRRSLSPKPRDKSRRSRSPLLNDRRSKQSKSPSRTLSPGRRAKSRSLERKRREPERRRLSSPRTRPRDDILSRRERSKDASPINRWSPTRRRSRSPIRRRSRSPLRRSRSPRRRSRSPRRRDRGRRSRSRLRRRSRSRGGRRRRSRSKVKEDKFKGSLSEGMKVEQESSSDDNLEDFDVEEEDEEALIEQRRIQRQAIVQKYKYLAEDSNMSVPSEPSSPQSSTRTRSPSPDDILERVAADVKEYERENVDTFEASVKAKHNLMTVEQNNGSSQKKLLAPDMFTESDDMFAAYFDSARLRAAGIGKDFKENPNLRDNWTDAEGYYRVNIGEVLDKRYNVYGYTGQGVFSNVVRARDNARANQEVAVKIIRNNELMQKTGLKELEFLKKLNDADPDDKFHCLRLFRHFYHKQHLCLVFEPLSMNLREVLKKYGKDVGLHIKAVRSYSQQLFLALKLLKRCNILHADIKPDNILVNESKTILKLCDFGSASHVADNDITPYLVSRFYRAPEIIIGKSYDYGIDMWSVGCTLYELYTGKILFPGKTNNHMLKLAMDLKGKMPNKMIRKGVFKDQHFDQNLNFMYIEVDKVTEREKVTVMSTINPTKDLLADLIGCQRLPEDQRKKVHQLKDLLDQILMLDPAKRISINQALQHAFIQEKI

[19] = tested on: Proto-oncogene tyrosine-protein kinase receptor Ret (Homo sapiens), P07949 [M918T]; test: Inhibition of T7 bacteriophage fused human RET M918T mutant at 10 uM by KINOMEscan analysis relative to control
Sequence of Proto-oncogene tyrosine-protein kinase receptor Ret (Homo sapiens), P07949 [M918T] (P07949 whole entry M918T, the tested form may be a part): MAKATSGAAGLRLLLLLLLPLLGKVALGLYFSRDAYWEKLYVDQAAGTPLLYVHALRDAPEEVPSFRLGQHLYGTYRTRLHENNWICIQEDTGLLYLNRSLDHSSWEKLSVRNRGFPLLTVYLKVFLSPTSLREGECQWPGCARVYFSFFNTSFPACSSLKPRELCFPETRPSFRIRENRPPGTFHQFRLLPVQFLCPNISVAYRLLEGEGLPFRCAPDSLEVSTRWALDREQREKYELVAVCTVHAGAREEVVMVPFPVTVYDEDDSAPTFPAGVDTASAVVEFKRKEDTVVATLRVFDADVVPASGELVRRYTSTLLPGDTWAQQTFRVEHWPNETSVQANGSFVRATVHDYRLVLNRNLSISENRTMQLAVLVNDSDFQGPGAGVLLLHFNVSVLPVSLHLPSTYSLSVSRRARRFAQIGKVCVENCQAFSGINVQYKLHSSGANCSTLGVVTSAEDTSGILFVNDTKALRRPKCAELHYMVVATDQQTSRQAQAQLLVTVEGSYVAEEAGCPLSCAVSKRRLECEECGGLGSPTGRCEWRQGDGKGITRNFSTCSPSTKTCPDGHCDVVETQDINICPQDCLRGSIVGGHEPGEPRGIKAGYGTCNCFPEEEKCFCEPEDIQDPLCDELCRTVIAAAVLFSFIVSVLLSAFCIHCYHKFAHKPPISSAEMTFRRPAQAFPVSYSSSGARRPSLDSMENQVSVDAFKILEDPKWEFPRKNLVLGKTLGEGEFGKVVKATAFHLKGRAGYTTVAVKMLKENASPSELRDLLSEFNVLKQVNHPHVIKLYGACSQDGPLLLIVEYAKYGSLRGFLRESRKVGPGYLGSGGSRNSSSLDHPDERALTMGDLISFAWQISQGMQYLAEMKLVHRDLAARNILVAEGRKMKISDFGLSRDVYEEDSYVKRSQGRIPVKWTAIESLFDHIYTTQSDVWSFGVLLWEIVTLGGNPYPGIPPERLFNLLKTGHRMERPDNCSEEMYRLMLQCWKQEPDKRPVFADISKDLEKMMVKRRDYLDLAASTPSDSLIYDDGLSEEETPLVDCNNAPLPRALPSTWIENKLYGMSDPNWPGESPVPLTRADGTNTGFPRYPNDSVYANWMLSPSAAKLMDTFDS

[20] = biological target: Serine/threonine-protein kinase RIO2 (Homo sapiens) (UniProt Q9BVS4); test: Inhibition of T7 bacteriophage fused human RIOK2 at 10 uM by KINOMEscan analysis relative to control
Sequence of Serine/threonine-protein kinase RIO2 (Homo sapiens) (Q9BVS4 whole entry, looked up, the tested form may be a part): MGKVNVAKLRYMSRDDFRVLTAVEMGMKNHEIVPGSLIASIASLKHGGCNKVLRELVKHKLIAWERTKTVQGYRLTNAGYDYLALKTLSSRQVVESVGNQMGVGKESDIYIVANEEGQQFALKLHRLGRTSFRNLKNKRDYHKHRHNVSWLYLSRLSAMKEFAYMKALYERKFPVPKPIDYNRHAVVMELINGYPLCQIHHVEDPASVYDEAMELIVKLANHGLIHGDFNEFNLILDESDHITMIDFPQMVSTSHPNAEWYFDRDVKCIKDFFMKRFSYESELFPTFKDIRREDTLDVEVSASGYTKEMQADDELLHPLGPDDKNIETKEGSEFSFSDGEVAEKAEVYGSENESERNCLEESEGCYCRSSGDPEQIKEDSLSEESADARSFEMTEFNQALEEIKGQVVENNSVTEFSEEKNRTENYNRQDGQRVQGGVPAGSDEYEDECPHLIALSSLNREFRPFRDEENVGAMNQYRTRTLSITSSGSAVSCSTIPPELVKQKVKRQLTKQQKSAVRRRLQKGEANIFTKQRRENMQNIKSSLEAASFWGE

[21] = biological target: Proto-oncogene tyrosine-protein kinase ROS (Homo sapiens) (UniProt P08922); test: Inhibition of T7 bacteriophage fused human ROS1 at 10 uM by KINOMEscan analysis relative to control
[22] = biological target: Ribosomal protein S6 kinase alpha-6 (Homo sapiens) (UniProt Q9UK32); test: Inhibition of T7 bacteriophage fused human C-terminal RSK4 Kinase domain-2 at 10 uM by KINOMEscan analysis relative to control
[23] = biological target: Tyrosine-protein kinase Fes/Fps (Homo sapiens) (UniProt P07332); test: Inhibition of T7 bacteriophage fused human FES at 10 uM by KINOMEscan analysis relative to control; values are per cent of control
[24] = biological target: Dual specificity mitogen-activated protein kinase kinase 5 (Homo sapiens) (UniProt Q13163); test: Inhibition of T7 bacteriophage fused human MEK5 at 10 uM by KINOMEscan analysis relative to control; values are per cent of control
[25] = biological target: Serine/threonine-protein kinase MARK1 (Homo sapiens) (UniProt Q9P0L2); test: Inhibition of T7 bacteriophage fused human MARK1 at 10 uM by KINOMEscan analysis relative to control; values are per cent of control
[26] = biological target: MAP/microtubule affinity-regulating kinase 4 (Homo sapiens) (UniProt Q96L34); test: Inhibition of T7 bacteriophage fused human MARK4 at 10 uM by KINOMEscan analysis relative to control; values are per cent of control
[27] = biological target: Mitogen-activated protein kinase kinase kinase 2 (Homo sapiens) (UniProt Q9Y2U5); test: Inhibition of T7 bacteriophage fused human MAP3K2 at 10 uM by KINOMEscan analysis relative to control; values are per cent of control
[28] = biological target: Casein kinase I isoform gamma-3 (Homo sapiens) (UniProt Q9Y6M4); test: Inhibition of T7 bacteriophage fused human CSNK1G3 at 10 uM by KINOMEscan analysis relative to control; values are per cent of control
[29] = tested on: Epidermal growth factor receptor (Homo sapiens), P00533 [UNDEFINED MUTATION]; test: Inhibition of T7 bacteriophage fused human EGFR S752-I759del mutant at 10 uM by KINOMEscan analysis relative to control; values are per cent of control
[30] = biological target: 3-phosphoinositide-dependent protein kinase 1 (Homo sapiens) (UniProt O15530); test: Inhibition of PDK1 Lys1 labeling site in human PC-3 cell lysate at 10 uM by KiNativ profiling analysis relative to control

COc1cc(N2CCC(N3CCN(C)CC3)CC2)ccc1Nc1ncc2c(n1)N(C)c1ccccc1C(=O)N2C
inhibition [1]: 13% | inhibition [2]: 100% | inhibition [3]: 100% | inhibition [4]: 100% | inhibition [5]: 62% | inhibition [6]: 73% | inhibition [7]: 100% | inhibition [8]: 86% | inhibition [9]: 89% | inhibition [10]: 100% | inhibition [11]: 97% | inhibition [12]: 100% | inhibition [13]: 100% | inhibition [14]: 100% | inhibition [15]: 100% | inhibition [16]: 100% | inhibition [17]: 100% | inhibition [18]: 93% | inhibition [19]: 100% | inhibition [20]: 100% | inhibition [21]: 12% | inhibition [22]: 2.2% | residual activity [23]: 84% | residual activity [24]: 85% | residual activity [25]: 87% | residual activity [26]: 78% | residual activity [27]: 97% | residual activity [28]: 93% | residual activity [29]: 99%

CCOc1cc(C(=O)N2CCC(N3CCN(C)CC3)CC2)ccc1Nc1ncc2c(n1)N(C1CCCC1)c1ccccc1C(=O)N2C
inhibition [30]: 0%

Reference: ChEMBL document CHEMBL5678810
